Data published in PubChem BioAssay AID292 (DTP/NCI, 2004).
Where “and” joins values, the source holds several entries; their conditions need not be identical. Equal values may be shown once. Inconclusive results and toxic doses are left out. Rule for the calls: active = survival T/C of 150% or more; inactive = T/C below 125% in these data.

Test system: B6C3F1 mice, ip Sarcoma M5076, median survival T/C
Assay: NCI In Vivo Anticancer Drug Screen. Data for tumor model Sarcoma M5076 (intraperitoneal) in B6C3F1 mice
Conditions: endpoint: median survival time, higher = longer survival
Summary of the method: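 Survival measured in treated (T) and vehicle control (C) mice with transplantable tumour; result given as T divided by C.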

[1] = dose: 5.0 mg/kg/injection, schedule: Q04DX005 (ip), vehicle: saline
[2] = dose: 10.0 mg/kg/injection, schedule: Q04DX005 (ip), vehicle: saline
[3] = dose: 12.5 mg/kg/injection, schedule: Q04DX004 (ip), vehicle: saline with Tween-80
[4] = dose: 25.0 mg/kg/injection, schedule: Q04DX004 (ip), vehicle: saline with Tween-80
[5] = dose: 50.0 mg/kg/injection, schedule: Q04DX004 (ip), vehicle: saline with Tween-80
[6] = dose: 100.0 mg/kg/injection, schedule: Q04DX004 (ip), vehicle: saline with Tween-80
[7] = dose: 200.0 mg/kg/injection, schedule: Q04DX004 (ip), vehicle: saline with Tween-80
[8] = dose: 400.0 mg/kg/injection, schedule: Q04DX004 (ip), vehicle: saline with Tween-80
[9] = dose: 25.0 mg/kg/injection, schedule: Q04DX004 (ip), vehicle: Klucel (hydroxypropylcellulose) (HPC)
[10] = dose: 50.0 mg/kg/injection, schedule: Q04DX004 (ip), vehicle: Klucel (hydroxypropylcellulose) (HPC)
[11] = dose: 100.0 mg/kg/injection, schedule: Q04DX004 (ip), vehicle: Klucel (hydroxypropylcellulose) (HPC)
[12] = dose: 200.0 mg/kg/injection, schedule: Q04DX004 (ip), vehicle: Klucel (hydroxypropylcellulose) (HPC)

Measured: T/C

O=CC(NC(=O)N(CCCl)N=O)C(O)C(O)C(O)CO (stereo not drawn)
active: dose: 1.25 mg/kg/injection, schedule: Q04DX005 (ip), vehicle: saline 319 % of control | dose: 2.5 mg/kg/injection, schedule: Q04DX005 (ip), vehicle: saline 319 % of control | [1] 319 % of control | [2] 319 % of control

CCCCCCCC(=O)[O][Hg][CH2]C1COC([CH2][Hg][O]C(=O)CCCCCCC)CO1 (stereo not drawn)
inactive: dose: 6.25 mg/kg/injection, schedule: Q04DX004 (ip), vehicle: saline with Tween-80 95 % of control | [3] 86 % of control | [4] 86 % of control and 87 % of control | [5] 87 % of control and 90 % of control | [6] 87 % of control

O=C(Nc1cc(Cl)ccc1C(=O)O)c1cccc(C[n+]2ccccc2)c1
inactive: [5] 100 % of control | [6] 104 % of control | [7] 95 % of control | [8] 88 % of control

NC(=S)N/N=C/c1ncccc1O
inactive: dose: 50.0 mg/kg/injection, schedule: Q04DX004 (ip), vehicle: suspension in saline 103 % of control | dose: 100.0 mg/kg/injection, schedule: Q04DX004 (ip), vehicle: suspension in saline 101 % of control | dose: 200.0 mg/kg/injection, schedule: Q04DX004 (ip), vehicle: suspension in saline 101 % of control | dose: 400.0 mg/kg/injection, schedule: Q04DX004 (ip), vehicle: suspension in saline 102 % of control

CC[C@](C)(O)C(=O)O[C@H]1C(=O)O[C@@H]2C[C@H]3C(C)=CC(=O)[C@@H](O)[C@]3(C)[C@H]3[C@@]4(O)OC[C@]32[C@@H]1[C@@H](C)[C@H]4O
inactive: dose: 0.03 mg/kg/injection, schedule: Q04DX004 (ip), vehicle: saline 102 % of control | dose: 0.06 mg/kg/injection, schedule: Q04DX004 (ip), vehicle: saline 117 % of control | dose: 0.25 mg/kg/injection, schedule: Q04DX004 (ip), vehicle: saline 100 % of control

O=C1c2ccccc2C(=O)c2c(NCCNCCO)ccc(NCCNCCO)c21
inactive: dose: 1.0 mg/kg/injection, schedule: Q04DX004 (ip), vehicle: saline 112 % of control | dose: 2.0 mg/kg/injection, schedule: Q04DX004 (ip), vehicle: saline 120 % of control
active: [1] 234 % of control | dose: 8.0 mg/kg/injection, schedule: Q04DX004 (ip), vehicle: saline 158 % of control | [2] 319 % of control | dose: 16.0 mg/kg/injection, schedule: Q04DX004 (ip), vehicle: saline 174 % of control | dose: 20.0 mg/kg/injection, schedule: Q04DX004 (ip), vehicle: suspension in saline 156 % of control | dose: 40.0 mg/kg/injection, schedule: Q04DX004 (ip), vehicle: suspension in saline 172 % of control

CC1(C)C(=O)NC(=O)c2ccccc21
inactive: [9] 109 % of control

CC1=CC(C)(C)N=C2SC(COc3ccccc3)=NN12
inactive: [5] 104 % of control | [6] 96 % of control | [7] 93 % of control | [8] 99 % of control

NCCSC(C[N+](=O)[O-])c1ccccc1Cl (stereo not drawn)
inactive: [3] 90 % of control and 100 % of control | [4] 92 % of control and 105 % of control | [5] 95 % of control and 98 % of control | [6] 109 % of control

N#CC1C(=O)NC(=O)C(C#N)C1c1c2ccccc2cc2ccccc12 (stereo not drawn)
inactive: [10] 96 % of control | [11] 103 % of control | [12] 94 % of control | dose: 400.0 mg/kg/injection, schedule: Q04DX004 (ip), vehicle: Klucel (hydroxypropylcellulose) (HPC) 106 % of control | dose: 800.0 mg/kg/injection, schedule: Q04DX004 (ip), vehicle: Klucel (hydroxypropylcellulose) (HPC) 102 % of control

Nc1ncn(C2OC(CO)C(O)C2O)c(=O)n1 (stereo not drawn)
inactive: dose: 0.38 mg/kg/injection, schedule: Q01DX009 (ip), vehicle: saline 100 % of control and 101 % of control | dose: 0.75 mg/kg/injection, schedule: Q01DX009 (ip), vehicle: saline 109 % of control and 114 % of control | dose: 1.5 mg/kg/injection, schedule: Q01DX009 (ip), vehicle: saline 112 % of control and 115 % of control
active: dose: 25.0 mg/kg/injection, schedule: Q01DX009 (ip), vehicle: saline 150 % of control | dose: 50.0 mg/kg/injection, schedule: Q01DX009 (ip), vehicle: saline 155 % of control and 159 % of control | dose: 100.0 mg/kg/injection, schedule: Q01DX009 (ip), vehicle: saline 172 % of control

CC1C(c2ccccc2)OC(N2CCOCC2)C(C)(C)CN1C (stereo not drawn)
inactive: dose: 150.0 mg/kg/injection, schedule: Q04DX004 (ip), vehicle: saline with Tween-80 101 % of control | dose: 300.0 mg/kg/injection, schedule: Q04DX004 (ip), vehicle: saline with Tween-80 104 % of control | dose: 600.0 mg/kg/injection, schedule: Q04DX004 (ip), vehicle: saline with Tween-80 99 % of control

Nc1nc(C=O)nc2c1ncn2C1OC(CO)C(O)C1O (stereo not drawn)
inactive: dose: 12.5 mg/kg/injection, schedule: Q04DX004 (ip), vehicle: water 104 % of control | dose: 25.0 mg/kg/injection, schedule: Q04DX004 (ip), vehicle: water 104 % of control | dose: 50.0 mg/kg/injection, schedule: Q04DX004 (ip), vehicle: water 106 % of control | dose: 100.0 mg/kg/injection, schedule: Q04DX004 (ip), vehicle: water 109 % of control | dose: 200.0 mg/kg/injection, schedule: Q04DX004 (ip), vehicle: water 123 % of control

NCCn1c(-c2ccccc2)nc2ccccc2c1=O
inactive: [9] 106 % of control | [10] 102 % of control | [11] 109 % of control | [12] 94 % of control

O=P1(N(CCCl)CCCl)NCCCO1 (stereo not drawn)
active: dose: 80.0 mg/kg/injection, schedule: Q04DX003 (ip), vehicle: saline 201 % of control | dose: 160.0 mg/kg/injection, schedule: Q04DX003 (ip), vehicle: saline 261 % of control

Cn1c(=S)[nH]n(CCOc2ccccc2)c1=S
inactive: dose: 31.25 mg/kg/injection, schedule: Q04DX004 (ip), vehicle: saline with Tween-80 105 % of control | dose: 62.5 mg/kg/injection, schedule: Q04DX004 (ip), vehicle: saline with Tween-80 99 % of control | dose: 125.0 mg/kg/injection, schedule: Q04DX004 (ip), vehicle: saline with Tween-80 101 % of control | dose: 250.0 mg/kg/injection, schedule: Q04DX004 (ip), vehicle: saline with Tween-80 100 % of control

Cc1cn(C2CC(F)C(CO)O2)c(=O)[nH]c1=O (stereo not drawn)
inactive: dose: 7.5 mg/kg/injection, schedule: Q04DX004 (ip), vehicle: suspension in saline 111 % of control | dose: 150.0 mg/kg/injection, schedule: Q04DX004 (ip), vehicle: suspension in saline 101 % of control | dose: 300.0 mg/kg/injection, schedule: Q04DX004 (ip), vehicle: suspension in saline 111 % of control | dose: 600.0 mg/kg/injection, schedule: Q04DX004 (ip), vehicle: suspension in saline 117 % of control

CC[C@@H](C)[C@@H]1NC(=O)C(NC(=O)C(CC(C)C)N(C)C(=O)C2CCCN2C(=O)C(C)O)C(C)OC(=O)C(Cc2ccc(OC)cc2)N(C)C(=O)C2CCCN2C(=O)C(CC(C)C)NC(=O)C(C)C(=O)C(C(C)C)OC(=O)C[C@H]1O (stereo partly drawn)
inactive: dose: 0.13 mg/kg/injection, schedule: Q04DX004 (ip), vehicle: distilled water + alcohol 120 % of control | dose: 45.0 micrograms/kg/injection, schedule: Q04DX004 (ip), vehicle: distilled water + alcohol 117 % of control | dose: 90.0 micrograms/kg/injection, schedule: Q04DX004 (ip), vehicle: distilled water + alcohol 115 % of control
active: dose: 0.36 mg/kg/injection, schedule: Q04DX004 (ip), vehicle: distilled water + alcohol 171 % of control | dose: 0.6 mg/kg/injection, schedule: Q04DX004 (ip), vehicle: distilled water + alcohol 209 % of control

COC1C(CO)OC(n2c3c(Cl)cccc3c3c4c(c5c6cccc(Cl)c6[nH]c5c32)C(=O)NC4=O)C(O)C1O (stereo not drawn)
inactive: dose: 46.75 mg/kg/injection, schedule: Q04DX004 (ip), vehicle: distilled water + Tween-80 113 % of control | dose: 50.0 mg/kg/injection, schedule: Q04DX004 (ip), vehicle: distilled water + Tween-80 116 % of control | dose: 93.5 mg/kg/injection, schedule: Q04DX004 (ip), vehicle: distilled water + Tween-80 118 % of control | dose: 100.0 mg/kg/injection, schedule: Q04DX004 (ip), vehicle: distilled water + Tween-80 117 % of control and 118 % of control | dose: 200.0 mg/kg/injection, schedule: Q04DX004 (ip), vehicle: distilled water + Tween-80 118 % of control | dose: 374.0 mg/kg/injection, schedule: Q04DX004 (ip), vehicle: distilled water + Tween-80 108 % of control | dose: 748.0 mg/kg/injection, schedule: Q04DX004 (ip), vehicle: distilled water + Tween-80 115 % of control | dose: 800.0 mg/kg/injection, schedule: Q04DX004 (ip), vehicle: distilled water + Tween-80 117 % of control
